Values quoted from earlier work as cited in patent publication US20040096492A1, “Cicatrizant hydrocolloidal patch containing hyaluronic acid and chondroitin sulphate” (priority 2001, published 2004).

Tested on: full thickness (300 mm^2) cutaneous wound
Conditions: rats

Substance: sodium chondroitin sulphate
- residual area in the treated group relative to the control group (8 days after the second application of 30 mg): half
- reduction of the damaged surface (planimetry) (one or two applications of 30 mg, vs control): more rapid
- clinical signs connected with the lesion (edema-exudate) (vs control): decreased more quickly
